Laboratory results published in patent US20090093538A1, “Method for treating cancer” (priority 2007, published 2009).
“Also recorded” adds a separate entry of the source.

Assays:
Hsp70 [1] = assay: Hsp70 RNA induction, quantitative PCR, Hs294T cells; format: cell-based, human; settings: Compound 1 100 nM, 6 hours
Protocol: […] 500 ng of RNA from each sample was used for cDNA synthesis using iScript cDNA Synthesis Kit (Biorad, Cat# 170-8891). 1 uL of cDNA mixture was used with the iQ SYBR Green Supermix (Biorad, Cat# 170-8882) to perform quantitative PCR in an iCycler machine (Biorad) using standard protocols. QPCR for each sample/time point was performed in duplicate. The following primers for inducible human Hsp70 and gapdh were used:
Ct values were obtained from the iCycler program and used in an equation (2^−ΔΔCT) for determining the amount of target relative to gapdh expression. This compares the relative expression of Hsp70 to the corresponding levels of gapdh in each sample. Duplicate wells were averaged and graphed with their corresponding standard deviation.
Activation of HSF-1 by oxidative stress has been reported in the literature to require p38 kinase signaling in some cell lines.

HSB2 cells [2] = assay: Apoptosis, Annexin V / propidium iodide FACS; format: cell-based; settings: for relative levels of apoptotic cells: agent alone, without Compound 1
Protocol: (§1) To confirm that the ability of NAC to block Compound 1-induced cell death was not cell-line specific, we examined the role of oxidative stress in two additional cell lines by FAC analysis. RAMOS and HSB2 cells (ATCC) were seeded in 6-well plates at 1×10^6 cells/well/4 mL and incubated at 37° C. for 4 hours. […] After incubation the cells were stained with Annexin V and propidium iodide (Vybrant Apoptosis assay kit, Cat# V13241, Invitrogen, Molecular Probes) for measuring apoptotic cells by FACS analysis.
The cells were harvested and stained with Annexin V and propidium iodide for measuring apoptotic cells by FACS analysis.

MSK1 = MSK1 phosphorylation, Western blot, MDA-MB-435 cells; format: cell-based, human; settings: 20 μM SB203580, 0.1 or 0.5 μM Compound 1
Protocol: (§2) After treatment the cells were lysized and used for Western blot analysis.
Samples were run on a SDS-PAGE gel and proteins were transferred onto a nitrocellulose membrane by a semi-dry transfer. Nitrocellulose was blocked with 5% skim milk in TBS with 0.5% Tween at room temperature for 1 hour and then probed with anti-p-MSK1 (Thr581) (#9595, Cell Signaling) antibody. The nitrocellulose was then probed with secondary antibodies, HRP-conjugated goat anti-rabbit IgG and HRP-conjugated horse anti-mouse IgG (#7074, #7076, Cell Signaling). LumiGLO reagent, 20× Peroxide (#7003, Cell Signaling) was used to visualize gel (see FIG. 36).
(§3) Samples were run on a SDS-PAGE gel and proteins were transferred onto a nitrocellulose membrane by a semi-dry transfer. Nitrocellulose was blocked with 5% skim milk in TBS with 0.5% Tween at room temperature for 1 hour and then probed with anti-p-MSK1 (Thr581) (#9595, Cell Signaling) antibody. Tubulin was used as a normalization control and was probed with Anti-Tubulin (T9026, Sigma) antibody.

HSB2 cells [3] = assay: Apoptosis, Annexin V / propidium iodide FACS; format: cell-based; settings: p38 inhibitor 20 μM plus Compound 1 0.2 μM
MAPKAPK-2 = MAPKAPK-2 phosphorylation, Western blot, CEM and CV-1 cells; format: cell-based; settings: 20 μM SB203580, 0.1 or 0.5 μM Compound 1
Protocol: as §2
as §3, with “anti-p-MAPKAPK-2 (Thr334) (#3041,” for “anti-p-MSK1 (Thr581) (#9595,”

[4] = test system: Stage 1V metastatic melanoma
Protocol: A phase II clinical trial was conducted in patients that had Stage 1V metastatic melanoma patients.
Patients were treated until progression of the disease. […] The tumor assessments were performed at baseline, Cycle 2, and every other Cycle thereafter.

[5] = in vivo
Ramos cells [6] = assay: ROS generation, carboxy-H2DCFDA probe, flow cytometry; format: cell-based
Protocol: In these experiments, we monitored the production of ROS using the cell permeable Carboxy-H2DCFDA probe. When this probe is oxidized by ROS, it emits a green fluorescence that can be detected using flow cytometry or fluorescent microscopy. […] 25 μM carboxy-H2DCFDA (Invitrogen. C400) working solution was added to cover the cells, and the cells were incubate for 30 minutes at 37° C., protected from light. The cells were gently washed three times in warm HBSS/Ca/Mg. ROS levels, as determined by fluorescence intensity, were determined by flow cytometry (excitation at 495 nm, emission at 529 nm).
(§4) Tiron is a direct scavenger of ROS and is a potent inhibitor of oxidative stress.
Ramos cells were treated with elesclomol (500 nM) for the indicated times then washed gently once with warm HBSS/Ca/Mg (Invitrogen Carlsbad, Calif. Cat# 14025). 25 μM carboxy-H2DCFDA (Invitrogen Cat #C400) working solution was added to cover the cells and they were incubated for 30 minutes at 37° C., protected from light. The cells were gently washed three times in warm HBSS/Ca/Mg. ROS levels (fluorescence intensity) were determined by flow cytometry (excitation at 495 nm, emission at 529 nm) using a Becton Dickinson FACSCalibur equipped with CellQuest Pro software. Data is plotted as percent of elesclomol-treated cells with DCFDA fluorescence relative to DMSO (control) treated cells (see FIG. 49).

Hsp70 [7] = assay: Hsp70 induction by Compound 1 in the presence of Tiron; format: cell-based; settings: Tiron (FIG. 45)
Text: as §4

Ramos cells [8] = assay: Apoptosis, Annexin V / propidium iodide FACS; format: cell-based; settings: 5 mM NAC
Protocol: as §1

[9] = test system: Hs294T (or MDA-MB-435) cells; assay: Affymetrix transcriptional profiling; format: cell-based, human; settings: Hs294T cells; NAC 5 mM 30 minutes prior to Compound 1 100 nM; 6 hours
Protocol: RNA was isolated from the cells 6 hours after treatment using the RNeasy kit according to the manufacturers instructions (Qiagen Cat. # 71404) and RNA quality was confirmed by spectrophotometric examination. cDNA was synthesized using the One-Cycle cDNA Synthesis Kit (Affymetrix Cat. # 900431) according to the manufacturers instructions. cDNA was labeled using the GeneChip IVT Labeling Kit (Affymetrix Cat. #900449) and analyzed in duplicate on the Affymetrix Human Genome U133Plus 2.0 gene chip array according to standard Affymetrix protocols. Data sheets from the Affymetrix Gene Chip Scanner 3000 were imported into Microsoft Excel and filtered by the following criteria: greater than or equal to 1.5 fold increase, greater than or equal to 0.4SE between replicates; and 50 (low stringency) or 500 (high stringency) for the lowest signal.
NAC is the rate-limiting amino acid for the production of the antioxidant glutathione. Addition of NAC to cells increases the levels of endogenous glutathione which in turn blocks oxidative stress and ROS generation. […] RNA was isolated from the cells 6 hours after treatment and Affymetrix analysis was performed as above.

MDA-MB-435 cells = assay: Cell viability (Cell Counting Kit-8); format: cell-based, human; settings: […] NAC, 500 nM Compound 1, 72 hours
Protocol: The cells were further cultured at 37° C. for 72 hours and cell viability was measured with Cell Counting Kit-8 (Dojindo Laboratories, Cat# CK04).

[10] = test system: cytochrome c and caspase 3; assay: Apoptotic markers, Western blot, Ramos cells; format: cell-based; settings: 100 nM
Protocol: Ramos cells were plated for 3 hours then treated with 100 nM elesclomol for the indicated times. To determine cytochrome c levels in the cytoplasm and mitochondria (a) Ramos cells were fractionated using the method detailed in (Hase et al, Journal of Biol. Chem. Vol. 277, pp. 46950-58, 2002) and western blots were probed with Cytochrome C primary antibody (BD Pharmingen, clone 7H8.2; C12). All Western blots were probed with secondary antibodies conjugated to HRP (Cell Signaling) and visualized using Lumiglo (Cell Signaling) peroxide reagents. Images were captured from the Kodak Image Station 440. For Caspase 3 analysis (b), whole cell lysates were isolated using 1× cell lysis buffer (Cell Signaling, Danvers, Mass.) plus protease inhibitors (Calbiochem, San Diego, Calif.). 30 ug of protein was run on a 4-12% Nupage gel (Invitrogen) and immunoblotted using standard procedures. The blots were probed with Caspase 3 antibody (9662) and cleaved Caspase 3 primary antibodies (9661) both from Cell Signaling.

[11] = RECIST, Efficacy Sample, patients (percent)

Structure (SMILES): C[S+]([O-])c1ccc(-c2nc(-c3ccncc3)c(-c3ccc(F)cc3)[nH]2)cc1 (stereo not drawn) [SB203580, reference compound]
- inhibition of Hsp70 induction by Compound 1 (Hsp70 [1]; p38 inhibitor 20 uM): robust decrease in Hsp70 induction
- relative levels of apoptotic cells (HSB2 cells [2]): little or no effect
- block of Compound 1 induced phosphorylation of MSK1 (MSK1): blocked
- effect of p38 inhibitor on apoptosis induced by Compound 1 (HSB2 cells [3]): did not effect induction of apoptosis by Compound 1
- block of Compound 1 induced phosphorylation of MAPKAPK-2 (MAPKAPK-2): blocked

Structure (SMILES): CC(=O)O[C@H]1C(=O)[C@@]2(C)[C@H]([C@H](OC(=O)c3ccccc3)[C@]3(O)C[C@H](OC(=O)[C@H](O)[C@@H](NC(=O)c4ccccc4)c4ccccc4)C(C)=C1C3(C)C)[C@]1(OC(C)=O)CO[C@@H]1C[C@@H]2O [Paclitaxel, paclitaxel]
- CR + PR (95% CI) ([4]; RECIST, Efficacy Sample): 3.7% (0.1%,19.0%)
- Best Overall Response: Complete Response (CR) [4, 11]: 0
- Best Overall Response: Partial Response (PR) [4, 11]: 1 (3.7%)
- Best Overall Response: Progressive Disease (PD) [4, 11]: 16 (59.3%)
- number of patients with partial response ([4]; Table 5): 1 patient
- patients with progressive disease ([4]; Table 5): 59.3%
- patients with stable disease ([4]; Table 5): 37%
- dose limiting toxicities [5]: dose limiting toxicities occurred in a single patient in each of the top three dose levels

Structure (SMILES): O=S(=O)(O)c1cc(O)c(O)c(S(=O)(=O)O)c1 [Tiron, reference compound]
- block of ROS generation by Compound 1 (Ramos cells [6]; 500 mM Tiron 1 hour prior to Compound 1 0.5 μM, 24 hours): blocked the ability of Compound 1 to generate ROS
- block of induction of Hsp70 by Compound 1 (Hsp70 [7]): blocks the induction of Hsp70 by Compound 1

Structure (SMILES): CC(=O)N[C@@H](CS)C(=O)O [NAC, N-acetyl-cysteine, reference compound]
- inhibition of Compound 1-induced early apoptotic signaling (Ramos cells [8]): completed inhibited early apoptotic signaling
- effect of NAC on genes induced by Compound 1 [9]: inhibited the genes most robustly induced by Compound 1
- inhibition of Hsp70 induction by Compound 1 (Hsp70 [1]; 5 mM NAC): complete inhibition in Hsp70 induction; also recorded: completely inhibited
- block of Compound 1-induced cell death (MDA-MB-435 cells): completely blocked the ability of Compound 1 to induce cell death
- early apoptotic cells (HSB2 cells [2]; NAC 5 mM alone): 11%
- relative levels of apoptotic cells (HSB2 cells [2]): little or no effect
- block of ROS generation by Compound 1 (Ramos cells [6]; 1.0 mM or 10 mM NAC 1 hour prior to Compound 1 0.5 μM): almost completely blocked the generation of ROS by Compound 1

Structure (SMILES): CN(NC(=O)CC(=O)NN(C)C(=S)c1ccccc1)C(=S)c1ccccc1 [elesclomol]
- accumulation of ROS (Ramos cells [6]; 500 nM, time course): induces accumulation of ROS in cells shortly after drug treatment
- time post treatment at which cytochrome c and caspase 3 start to be activated [10]: 6 h
